Results as given in patent publication US8304539B2, “Fused heteroaryl modulators of glucocorticoid receptor, AP-1, and/or NF-κB activity and use thereof” (Bristol-Myers Squibb Company, priority 2008, dated 2012).

System: AP-1
Assay: Cellular transrepression assay (AP-1 luciferase reporter in A549 cells, PMA activated)
Assay type: cell-based
Conditions: 7 h, 10 ng/ml PMA; for EC50: read-out: AP-1 (EC50, nM) (measured in cellular transrepression assay); for Emax: read-out: AP-1 Max % inhibition (measured in cellular transrepression assay)
Experimental: Cellular Transrepressional Assay
To measure the ability of test molecules to inhibit AP-1 induced transcriptional activity we utilized an A549 cell which was stably transfected with a plasmid containing 7×AP-1 DNA binding sites (pAP-1-Luc plasmid, Stratagene Co. La Jolla, Calif.) followed by the gene for luciferase. Cells were activated with 10 ng/ml of phorbol myristic acid (PMA) plus or minus test molecules for 7 hours. After 7 hours a luciferase reagent was added to measure luciferase enzymatic activity in the cell. After a 10 minute incubation of luciferase reagent with cells, luminescence was measured in a TopCount luminescence counter. Repression of AP-1 activity was calculated as the percentage decrease in the signal induced by PMA alone. Test molecules were analyzed in the concentration range from 0.1 nM to 40 μM. EC50s were determined by using standard curve fitting methods such as Excel fit (Microsoft Co.). An EC50 is the test molecule concentration at which there is a 50% repression of the maximal inhibition of transcription, i.e. a 50% reduction of AP-1 activity.

| Compound | EC50 [nM] | Emax [%] |
| --- | --- | --- |
| CN(C)C(=O)c1ccc(-c2ccc3c(n2)Oc2ncccc2C3C(C)(C)C(=O)Nc2nncs2)cc1 (single isomer, unassigned) [Example 8] | 194 | 45.2 |
| CCN(C)C(=O)c1ccc(-c2ccc3c(n2)Oc2ncccc2C3C(C)(C)C(=O)Nc2nncs2)cc1 (single isomer, unassigned) [Example 9] | 66.2 | 55.4 |
| CC[S+]([O-])c1ccc(-c2ccc3c(n2)Oc2nc(C)ccc2C3C(C)(C)C(=O)Nc2nncs2)cc1 (stereo in doubt) [Example 81, 2-((5S)-2-(4-(ethylsulfinyl)phenyl)-8-methyl-5H-pyrido[3′,2′:5,6]pyrano[2,3-b]pyridin-5-yl)-2-methyl-N-1,3,4-thiadiazol-2-ylpropanamide] | 368 | 28.7 |
| Cc1ccc2c(n1)Oc1nc(-c3ccc([S+]([O-])C(C)C)cc3)ccc1C2C(C)(C)C(=O)Nc1nncs1 (stereo in doubt) [Example 82, 2-((5S)-2-(4-(isopropylsulfinyl)phenyl)-8-methyl-5H-pyrido[3′,2′:5,6]pyrano[2,3-b]pyridin-5-yl)-2-methyl-N-1,3,4-thiadiazol-2-ylpropanamide] | 181 | 34.4 |
| CN(C)C(=O)c1ccc(-c2ccc3c(n2)Oc2cnccc2C3C(C)(C)C(=O)Nc2nncs2)cc1 (centres unmarked) [Example 1, 4-(5-(1,1-dimethyl-2-oxo-2-(1,3,4-thiadiazol-2-ylamino)ethyl)-5H-pyrido[4′,3′:5,6]pyrano[2,3-b]pyridin-2-yl)-N,N-dimethylbenzamide] | 255 | 29.3 |
| CN(C)C(=O)c1ccc(-c2ccc3c(n2)Oc2ncccc2C3C(C)(C)C(=O)Nc2nncs2)cc1 (centres unmarked) [Example 3, 4-(5-(1,1-dimethyl-2-oxo-2-(1,3,4-thiadiazol-2-ylamino)ethyl)-5H-pyrido[3′,2′:5,6]pyrano[2,3-b]pyridin-2-yl)-N,N-dimethylbenzamide] | 189 | 38.6 |
| CCN(C)C(=O)c1ccc(-c2ccc3c(n2)Oc2ncccc2C3C(C)(C)C(=O)Nc2nncs2)cc1 (centres unmarked) [Example 4] | 197 | 46.6 |
| CC(C)(C(=O)Nc1nncs1)C1c2cccnc2Oc2nc(-c3ccc(C(=O)N4CCOCC4)cc3)ccc21 (centres unmarked) [Example 5] | 142 | 33.9 |
| Cc1ccc2c(n1)Oc1nc(-c3ccc(C(=O)N(C)C)cc3)ccc1C2C(C)(C)C(=O)Nc1nncs1 (centres unmarked) [Example 10, 4-(5-(1,1-dimethyl-2-oxo-2-(1,3,4-thiadiazol-2-ylamino)ethyl)-8-methyl-5H-pyrido[3′,2′:5,6]pyrano[2,3-b]pyridin-2-yl)-N,N-dimethylbenzamide] | 189 | 39 |
| Cc1ccc2c(n1)Oc1nc(-c3ccc(C(=O)N(C)C)cc3)ccc1[C@H]2C(C)(C)C(=O)Nc1nncs1 [Example 11] | 90.1 | 45.2 |
| Cc1ccc2c(n1)Oc1nc(-c3ccc(C(=O)N(C)C)cc3)ccc1[C@H]2C(C)(C)C(=O)Nc1nnc(C)s1 [Example 12] | 297 | 26.6 |
| Cc1ccc2c(n1)Oc1nc(-c3ccc(C(=O)N(C)C)cc3)ccc1[C@H]2C(C)(C)C(=O)Nc1ncns1 [Example 13] | 233 | 38.1 |
| CCN(C)C(=O)c1ccc(-c2ccc3c(n2)Oc2nc(C)ccc2C3C(C)(C)C(=O)Nc2nncs2)cc1 (centres unmarked) [Example 14, 4-(5-(1,1-dimethyl-2-oxo-2-(1,3,4-thiadiazol-2-ylamino)ethyl)-8-methyl-5H-pyrido[3′,2′:5,6]pyrano[2,3-b]pyridin-2-yl)-N-ethyl-N-methylbenzamide] | 97.2 | 58 |
| Cc1ccc2c(n1)Oc1nc(-c3ccc(C(=O)N4CCOCC4)cc3)ccc1C2C(C)(C)C(=O)Nc1nncs1 (centres unmarked) [Example 15] | 460 | 47.4 |
| Cc1ccc2c(n1)Oc1nc(-c3ccc(C(=O)N4CCCC4)cc3)ccc1C2C(C)(C)C(=O)Nc1nncs1 (centres unmarked) [Example 16] | 541 | 40.2 |
| CC(=O)c1ccc(-c2ccc3c(n2)Oc2nc(C)ccc2C3C(C)(C)C(=O)Nc2nncs2)cc1 (centres unmarked) [Example 17] | 72.8 | 42.4 |
